According to ChEMBL document CHEMBL3885861, “Open TG-GATES”:

Species on record: Rattus norvegicus
Experiment: Open TG-GATES - Regimen: Single
Format: toxicity, organism-based, Sprague-Dawley
Set-up: regimen Single, gender Male, age 6 weeks
Settings: in vivo, po, route gavage; for APTT / Bas / Eos / Fbg / Hb / Ht / Lym / MCH / MCHC / MCV / Mono / Neu / PT / Plat / RBC / Ret / WBC: tissue Blood; for KIDNEY_L / KIDNEY_R / KIDNEY_TOTAL: tissue Kidney; for LIVER: tissue Liver; for A/G / ALP / ALT / AST / BUN / CRE / Ca / Cl / DBIL / GLC / IP / K / LDH / Na / PL / RALB / TBIL / TC / TG / TP / gamma-GTP: tissue Plasma
[1] = 0 mg/kg, 3 h, dose level Control
[2] = 0 mg/kg, 6 h, dose level Control
[3] = 0 mg/kg, 9 h, dose level Control
[4] = 0 mg/kg, 24 h, dose level Control

## Cn1cnc([N+](=O)[O-])c1Sc1ncnc2nc[nH]c12 [AZATHIOPRINE]
[1]
  TERMINAL_BW: 189.8 g
  APTT: 23.1 s
  Bas: 0%
  Eos: 1%
  Fbg: 288.2 mg/dL
  Hb: 13.4 g/dL
  Ht: 39.3%
  Lym: 78.6%
  MCH: 21.9 pg
  MCHC: 34%
  MCV: 64.5 fL
  Mono: 2.4%
  Neu: 17.2%
  PT: 15.7 s
  Plat: 117.7 x10_4/uL
  RBC: 610.8 x10_4/ul
  Ret: 9.3%
  WBC: 98.5 x10_2/uL
  KIDNEY_L: 0.9 g
  KIDNEY_R: 0.9 g
  KIDNEY_TOTAL: 1.7 g
  LIVER: 8.6 g
  A/G: 1.1
  ALP: 1465.6 IU/L
  ALT: 46.8 IU/L
  AST: 78.4 IU/L
  BUN: 11.8 mg/dL
  CRE: 0.2 mg/dL
  Ca: 10.3 mg/dL
  Cl: 107 meq/L
  DBIL: 0 mg/dL
  GLC: 175.4 mg/dL
  IP: 8.2 mg/dL
  K: 3.9 meq/L
  LDH: 217.6 IU/L
  Na: 142.6 meq/L
  PL: 129.6 mg/dL
  RALB: 2.9 g/dL
  TBIL: 0.006 mg/dL
  TC: 79 mg/dL
  TG: 46 mg/dL
  TP: 5.5 g/dL
  gamma-GTP: 1.2 IU/L
[2]
  TERMINAL_BW: 186.3 g
  APTT: 21.1 s
  Bas: 0%
  Eos: 1%
  Fbg: 307.4 mg/dL
  Hb: 13.2 g/dL
  Ht: 39.3%
  Lym: 73.8%
  MCH: 21.6 pg
  MCHC: 33.7%
  MCV: 64.1 fL
  Mono: 2.4%
  Neu: 22%
  PT: 15.7 s
  Plat: 124.9 x10_4/uL
  RBC: 612.4 x10_4/ul
  Ret: 9.5%
  WBC: 66 x10_2/uL
  KIDNEY_L: 0.9 g
  KIDNEY_R: 0.9 g
  KIDNEY_TOTAL: 1.7 g
  LIVER: 8.4 g
  A/G: 1.3
  ALP: 1451.6 IU/L
  ALT: 42.8 IU/L
  AST: 70.8 IU/L
  BUN: 11.6 mg/dL
  CRE: 0.1 mg/dL
  Ca: 10.4 mg/dL
  Cl: 106.4 meq/L
  DBIL: 0.002 mg/dL
  GLC: 183.8 mg/dL
  IP: 8.8 mg/dL
  K: 4.2 meq/L
  LDH: 254.6 IU/L
  Na: 141.6 meq/L
  PL: 137.8 mg/dL
  RALB: 3.1 g/dL
  TBIL: 0.014 mg/dL
  TC: 77.6 mg/dL
  TG: 66.8 mg/dL
  TP: 5.5 g/dL
  gamma-GTP: 1 IU/L
[3]
  TERMINAL_BW: 190.4 g
  APTT: 20.8 s
  Bas: 0%
  Eos: 0.6%
  Fbg: 301.8 mg/dL
  Hb: 12.6 g/dL
  Ht: 37.7%
  Lym: 79.6%
  MCH: 21.6 pg
  MCHC: 33.2%
  MCV: 65 fL
  Mono: 2%
  Neu: 16.2%
  PT: 15.2 s
  Plat: 127.2 x10_4/uL
  RBC: 582 x10_4/ul
  Ret: 9.9%
  WBC: 93.5 x10_2/uL
  KIDNEY_L: 0.9 g
  KIDNEY_R: 0.9 g
  KIDNEY_TOTAL: 1.9 g
  LIVER: 8.2 g
  A/G: 1.3
  ALP: 1520.4 IU/L
  ALT: 38 IU/L
  AST: 72.8 IU/L
  BUN: 10.6 mg/dL
  CRE: 0.1 mg/dL
  Ca: 10.5 mg/dL
  Cl: 105.6 meq/L
  DBIL: 0.004 mg/dL
  GLC: 176.2 mg/dL
  IP: 9.5 mg/dL
  K: 4.3 meq/L
  LDH: 182.4 IU/L
  Na: 141.2 meq/L
  PL: 125.2 mg/dL
  RALB: 3 g/dL
  TBIL: 0.016 mg/dL
  TC: 76.4 mg/dL
  TG: 46.2 mg/dL
  TP: 5.3 g/dL
  gamma-GTP: 1 IU/L
[4]
  TERMINAL_BW: 202.7 g
  APTT: 21.7 s
  Bas: 0%
  Eos: 0.6%
  Fbg: 308.2 mg/dL
  Hb: 13.5 g/dL
  Ht: 39.6%
  Lym: 77.4%
  MCH: 22.2 pg
  MCHC: 34.1%
  MCV: 65.2 fL
  Mono: 2%
  Neu: 18.6%
  PT: 16.2 s
  Plat: 117.2 x10_4/uL
  RBC: 607 x10_4/ul
  Ret: 8.8%
  WBC: 97.8 x10_2/uL
  KIDNEY_L: 0.9 g
  KIDNEY_R: 0.9 g
  KIDNEY_TOTAL: 1.7 g
  LIVER: 9.6 g
  A/G: 1.2
  ALP: 1642 IU/L
  ALT: 46 IU/L
  AST: 74.6 IU/L
  BUN: 16.8 mg/dL
  CRE: 0.1 mg/dL
  Ca: 11 mg/dL
  Cl: 106.8 meq/L
  DBIL: 0 mg/dL
  GLC: 185.6 mg/dL
  IP: 7 mg/dL
  K: 3.9 meq/L
  LDH: 223.2 IU/L
  Na: 143.2 meq/L
  PL: 156.8 mg/dL
  RALB: 3.1 g/dL
  TBIL: 0.006 mg/dL
  TC: 86.8 mg/dL
  TG: 102.8 mg/dL
  TP: 5.6 g/dL
  gamma-GTP: 1 IU/L
3 mg/kg, 3 h, dose level Low
  TERMINAL_BW: 191 g
  APTT: 23.4 s
  Bas: 0%
  Eos: 1%
  Fbg: 295.8 mg/dL
  Hb: 13.4 g/dL
  Ht: 40.1%
  Lym: 77.8%
  MCH: 21.6 pg
  MCHC: 33.4%
  MCV: 64.6 fL
  Mono: 1.8%
  Neu: 18.2%
  PT: 15.8 s
  Plat: 115.7 x10_4/uL
  RBC: 621.4 x10_4/ul
  Ret: 9.1%
  WBC: 67.9 x10_2/uL
  KIDNEY_L: 0.8 g
  KIDNEY_R: 0.9 g
  KIDNEY_TOTAL: 1.7 g
  LIVER: 8.6 g
  A/G: 1.2
  ALP: 1535.2 IU/L
  ALT: 41.6 IU/L
  AST: 73.4 IU/L
  BUN: 13.2 mg/dL
  CRE: 0.1 mg/dL
  Ca: 10.6 mg/dL
  Cl: 106.8 meq/L
  DBIL: 0.002 mg/dL
  GLC: 190.2 mg/dL
  IP: 8.1 mg/dL
  K: 4.2 meq/L
  LDH: 273.6 IU/L
  Na: 142.8 meq/L
  PL: 139.2 mg/dL
  RALB: 3 g/dL
  TBIL: 0.004 mg/dL
  TC: 75.4 mg/dL
  TG: 68 mg/dL
  TP: 5.5 g/dL
  gamma-GTP: 1 IU/L
3 mg/kg, 6 h, dose level Low
  TERMINAL_BW: 185.7 g
  APTT: 21.8 s
  Bas: 0%
  Eos: 0.8%
  Fbg: 324.4 mg/dL
  Hb: 13.1 g/dL
  Ht: 39%
  Lym: 69.2%
  MCH: 22.3 pg
  MCHC: 33.6%
  MCV: 66.3 fL
  Mono: 2.2%
  Neu: 26.2%
  PT: 15.7 s
  Plat: 130.1 x10_4/uL
  RBC: 589.2 x10_4/ul
  Ret: 9.5%
  WBC: 95.2 x10_2/uL
  KIDNEY_L: 0.8 g
  KIDNEY_R: 0.8 g
  KIDNEY_TOTAL: 1.7 g
  LIVER: 8.1 g
  A/G: 1.2
  ALP: 1674.4 IU/L
  ALT: 43.2 IU/L
  AST: 75 IU/L
  BUN: 9.4 mg/dL
  CRE: 0.1 mg/dL
  Ca: 10.5 mg/dL
  Cl: 106.8 meq/L
  DBIL: 0.002 mg/dL
  GLC: 182.4 mg/dL
  IP: 8.8 mg/dL
  K: 4.2 meq/L
  LDH: 288.6 IU/L
  Na: 142.2 meq/L
  PL: 135.8 mg/dL
  RALB: 3 g/dL
  TBIL: 0.008 mg/dL
  TC: 78.8 mg/dL
  TG: 48.4 mg/dL
  TP: 5.5 g/dL
  gamma-GTP: 1 IU/L
3 mg/kg, 9 h, dose level Low
  TERMINAL_BW: 186.8 g
  APTT: 22.5 s
  Bas: 0%
  Eos: 1%
  Fbg: 311.8 mg/dL
  Hb: 13 g/dL
  Ht: 38.7%
  Lym: 74%
  MCH: 21.2 pg
  MCHC: 33.5%
  MCV: 63.4 fL
  Mono: 2.4%
  Neu: 20.6%
  PT: 15.3 s
  Plat: 125.3 x10_4/uL
  RBC: 611 x10_4/ul
  Ret: 9.3%
  WBC: 83.5 x10_2/uL
  KIDNEY_L: 0.9 g
  KIDNEY_R: 0.9 g
  KIDNEY_TOTAL: 1.7 g
  LIVER: 7.5 g
  A/G: 1.2
  ALP: 1456.2 IU/L
  ALT: 38.4 IU/L
  AST: 70.4 IU/L
  BUN: 10.6 mg/dL
  CRE: 0.1 mg/dL
  Ca: 10.5 mg/dL
  Cl: 107 meq/L
  DBIL: 0 mg/dL
  GLC: 183.4 mg/dL
  IP: 9.3 mg/dL
  K: 4.2 meq/L
  LDH: 234.2 IU/L
  Na: 141.6 meq/L
  PL: 140.8 mg/dL
  RALB: 2.9 g/dL
  TBIL: 0.016 mg/dL
  TC: 83.4 mg/dL
  TG: 51.8 mg/dL
  TP: 5.4 g/dL
  gamma-GTP: 1 IU/L
3 mg/kg, 24 h, dose level Low
  TERMINAL_BW: 202.9 g
  APTT: 21.3 s
  Bas: 0%
  Eos: 1%
  Fbg: 322.4 mg/dL
  Hb: 13.5 g/dL
  Ht: 39.2%
  Lym: 77.8%
  MCH: 21.9 pg
  MCHC: 34.5%
  MCV: 63.4 fL
  Mono: 2.2%
  Neu: 18.4%
  PT: 16 s
  Plat: 135.6 x10_4/uL
  RBC: 618.4 x10_4/ul
  Ret: 8.2%
  WBC: 63.3 x10_2/uL
  KIDNEY_L: 0.9 g
  KIDNEY_R: 0.9 g
  KIDNEY_TOTAL: 1.8 g
  LIVER: 9.7 g
  A/G: 1.3
  ALP: 1726.6 IU/L
  ALT: 48.8 IU/L
  AST: 75.4 IU/L
  BUN: 14.6 mg/dL
  CRE: 0.1 mg/dL
  Ca: 11.1 mg/dL
  Cl: 106.8 meq/L
  DBIL: 0 mg/dL
  GLC: 189 mg/dL
  IP: 7.2 mg/dL
  K: 4.1 meq/L
  LDH: 318.6 IU/L
  Na: 143.4 meq/L
  PL: 148.2 mg/dL
  RALB: 3.2 g/dL
  TBIL: 0.004 mg/dL
  TC: 76.4 mg/dL
  TG: 120 mg/dL
  TP: 5.7 g/dL
  gamma-GTP: 1.2 IU/L
